From patent US20220153766A1, “CONDENSED TRICYCLIC COMPOUND USED AS KINASE INHIBITOR” (Hangzhou Innogate Pharma Co., Ltd., priority 2019, published 2022)

Tests used:
EGFR (C797S) = EGFR (C797S) (Homo sapiens, UniProt P00533, C797S); assay: EGFR (C797S) kinase activity inhibition, Lantha screen Assay; format: biochemical; settings: kinase 10 nM, ATP 0.1 μM
Description: 1. EGFR (C797S) Kinase Activity Inhibition Experiment: The Lantha screen Assay method was used to test the inhibitory activity of the compounds at a kinase EGFR (C797S) concentration of 10 nM and an ATP concentration of 0.1 μM. The control samples were Staurosporine. Experimental Steps: […] 2) Control sample Staurosporine and test samples preparation: Staurosporine and the compounds of the embodiment of the present invention are formulated into a gradient concentration solution in 100% DMSO, and diluted to 10% DMSO with the above-mentioned buffer, and added to a 384-well plate. For example, if the initial concentration of the compound is 10 μM, 100% DMSO is used to prepare a 1000 μM solution, and 10 concentration gradients are diluted, and 100 nL solution is transferred to a 384-well plate with Echo*LIQUID HANDLE RS (LABCYTE, USA). […] Transfer 5 μL to the 384-well plate and incubate with the compound for 10-15 minutes. […] Transfer 5 μL to the 384-well plate to initiate the reaction, and incubate at room temperature for 30 minutes. [table] 5) Use TR-Fret dilution buffer to prepare 2-fold detection solution. The final concentration of Antibody is 2 nM and the final concentration of EDTA is 10 mM. Transfer 10 μL of detection solution to the reaction wells of the 384-well plate, shake and mix, and incubate at room temperature for 60 min. 6) Read the ratio of excitation at 340 nm and emission at 520 nm to 495 nm on Envision, and calculate the inhibition rate. 7) Fit IC50 with XL-fit software.

ALK = ALK (Homo sapiens, UniProt Q9UM73); assay: ALK kinase activity inhibition, Caliper mobility shift assay, method 1; format: biochemical
Sequence of ALK (Q9UM73 19-1620): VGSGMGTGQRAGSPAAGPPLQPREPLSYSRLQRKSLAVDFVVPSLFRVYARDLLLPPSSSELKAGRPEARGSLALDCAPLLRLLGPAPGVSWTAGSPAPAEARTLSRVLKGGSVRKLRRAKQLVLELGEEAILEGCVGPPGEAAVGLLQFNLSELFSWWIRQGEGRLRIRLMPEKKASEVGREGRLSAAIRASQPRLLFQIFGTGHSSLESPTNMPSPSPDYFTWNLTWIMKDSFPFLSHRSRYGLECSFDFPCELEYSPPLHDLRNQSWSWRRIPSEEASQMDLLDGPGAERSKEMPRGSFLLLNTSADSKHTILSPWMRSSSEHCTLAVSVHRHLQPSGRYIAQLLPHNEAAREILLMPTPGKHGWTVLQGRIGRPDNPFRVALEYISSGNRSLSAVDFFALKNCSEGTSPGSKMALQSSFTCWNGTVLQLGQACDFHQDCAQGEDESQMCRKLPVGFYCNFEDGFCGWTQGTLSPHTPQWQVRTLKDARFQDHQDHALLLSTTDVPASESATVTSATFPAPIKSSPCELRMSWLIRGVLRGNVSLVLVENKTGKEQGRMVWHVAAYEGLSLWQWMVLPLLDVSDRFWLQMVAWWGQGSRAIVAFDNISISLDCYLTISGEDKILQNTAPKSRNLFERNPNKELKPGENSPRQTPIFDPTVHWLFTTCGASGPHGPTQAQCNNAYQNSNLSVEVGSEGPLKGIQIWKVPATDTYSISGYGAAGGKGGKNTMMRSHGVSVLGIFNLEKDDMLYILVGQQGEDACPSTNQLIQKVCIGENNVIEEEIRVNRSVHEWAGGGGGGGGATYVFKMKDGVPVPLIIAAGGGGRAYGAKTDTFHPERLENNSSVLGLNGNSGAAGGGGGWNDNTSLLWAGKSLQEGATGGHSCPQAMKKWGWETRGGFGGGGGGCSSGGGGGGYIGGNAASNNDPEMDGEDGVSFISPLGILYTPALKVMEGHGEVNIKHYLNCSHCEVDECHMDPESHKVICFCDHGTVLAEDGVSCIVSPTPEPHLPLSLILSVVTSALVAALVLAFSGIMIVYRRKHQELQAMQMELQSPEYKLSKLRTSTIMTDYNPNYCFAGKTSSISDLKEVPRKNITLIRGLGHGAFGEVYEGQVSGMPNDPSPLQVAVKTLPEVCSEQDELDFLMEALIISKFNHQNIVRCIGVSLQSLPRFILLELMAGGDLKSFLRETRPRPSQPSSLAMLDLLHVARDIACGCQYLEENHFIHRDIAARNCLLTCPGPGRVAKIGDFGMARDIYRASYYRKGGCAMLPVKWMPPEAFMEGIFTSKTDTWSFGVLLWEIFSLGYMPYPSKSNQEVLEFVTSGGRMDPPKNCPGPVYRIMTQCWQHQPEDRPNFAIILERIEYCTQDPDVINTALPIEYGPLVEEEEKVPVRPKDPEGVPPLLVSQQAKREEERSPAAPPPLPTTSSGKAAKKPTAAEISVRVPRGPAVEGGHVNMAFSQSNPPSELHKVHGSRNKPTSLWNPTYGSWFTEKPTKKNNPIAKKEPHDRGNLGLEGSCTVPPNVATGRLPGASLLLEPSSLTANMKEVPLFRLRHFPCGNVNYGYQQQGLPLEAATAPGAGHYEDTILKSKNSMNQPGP
Description: 2. ALK Kinase Activity Inhibition Experiment: Method 1: In vitro enzymatic activity of ALK was measured using Caliper mobility shift assay. […] Add 10 μL of 2.5-fold enzyme solution and incubate at room temperature for 10 minutes, then add 10 μL of 2.5-fold substrates (Peptide FAM-P22 and ATP) solution. […] Read conversion rate data on Caliper EZ Reader II (Caliper Life Sciences). Convert the conversion rate into inhibition rate (% inhibition=(max−conversion rate)/(max−min)*100). Max refers to the conversion rate of the DMSO control, and min refers to the conversion rate without enzyme activity. With the compound concentration and inhibition rate on the abscissa and ordinate, draw the curve, use XLFit excel add-in version 5.4.0.8 software to fit the curve and calculate the IC50.

[1] = target: Ba/F3_EGFR del19/T790M/C797S cells (Homo sapiens, UniProt P00533, T790M/C797S, cells depend on it, form not given); assay: Ba/F3_EGFR (del19-T790M-C797S) cell proliferation inhibition, CTG, method 1; format: cell-based; settings: 700 cells/well, 72 h, read-out: Ba/F3_EGFR (del19-T790M-C797S) cell proliferation inhibition (IC50 value) Method 1
Sequence of Ba/F3_EGFR del19/T790M/C797S cells (P00533 with tags, fused parts or gaps DEL746-750/T790M/C797S, form open): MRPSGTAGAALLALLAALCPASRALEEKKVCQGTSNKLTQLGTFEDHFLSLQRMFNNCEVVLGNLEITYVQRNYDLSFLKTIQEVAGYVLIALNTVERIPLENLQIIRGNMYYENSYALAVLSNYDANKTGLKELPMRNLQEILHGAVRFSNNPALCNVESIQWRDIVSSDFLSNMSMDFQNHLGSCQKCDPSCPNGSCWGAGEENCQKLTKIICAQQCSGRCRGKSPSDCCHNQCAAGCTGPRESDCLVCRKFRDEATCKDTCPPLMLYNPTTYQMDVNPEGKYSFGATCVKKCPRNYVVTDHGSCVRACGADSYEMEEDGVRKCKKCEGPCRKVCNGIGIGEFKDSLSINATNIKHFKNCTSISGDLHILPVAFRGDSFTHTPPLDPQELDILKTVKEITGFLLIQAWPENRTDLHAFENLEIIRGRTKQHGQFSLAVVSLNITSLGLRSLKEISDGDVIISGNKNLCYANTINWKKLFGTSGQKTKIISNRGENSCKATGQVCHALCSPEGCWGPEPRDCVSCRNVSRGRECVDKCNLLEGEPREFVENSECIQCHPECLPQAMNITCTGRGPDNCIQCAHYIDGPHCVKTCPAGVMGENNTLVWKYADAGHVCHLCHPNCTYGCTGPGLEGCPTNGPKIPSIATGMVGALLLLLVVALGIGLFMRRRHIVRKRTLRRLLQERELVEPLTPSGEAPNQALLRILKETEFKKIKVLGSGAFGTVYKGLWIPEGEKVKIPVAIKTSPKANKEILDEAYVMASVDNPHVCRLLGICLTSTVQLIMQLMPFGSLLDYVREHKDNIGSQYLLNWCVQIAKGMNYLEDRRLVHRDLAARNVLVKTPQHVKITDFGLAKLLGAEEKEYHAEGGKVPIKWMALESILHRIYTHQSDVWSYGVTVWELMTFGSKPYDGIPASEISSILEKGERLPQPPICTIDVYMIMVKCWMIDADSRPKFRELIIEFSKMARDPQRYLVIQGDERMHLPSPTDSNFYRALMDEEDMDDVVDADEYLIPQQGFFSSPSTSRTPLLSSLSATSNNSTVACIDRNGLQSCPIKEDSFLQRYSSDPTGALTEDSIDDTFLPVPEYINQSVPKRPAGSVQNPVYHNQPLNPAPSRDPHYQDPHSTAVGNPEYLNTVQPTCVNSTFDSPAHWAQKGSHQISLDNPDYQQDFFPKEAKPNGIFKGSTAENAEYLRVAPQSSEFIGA
Description: The cells were cultured in a 37° C., 5% CO2 incubator.
Cell plating and compound treatment: 1) Cells are routinely cultured until the cell saturation is 80%-90%, and when the number reaches the requirement, the cells are collected. 2) Resuspend in the corresponding fresh medium, take a small amount of cells to count, and prepare a cell suspension with a suitable density. 3) Inoculate the cell suspension into a 384-well plate at 700 cells/well, 30 μL per well. 4) Use Echo to add the compound to the corresponding cell well. The maximum starting concentration of the compound is 1-10 μM, 3 folds dilution, 8 concentrations.
CTG method detection: 1) Add 30 μL of CTG reagent (CelltiterGlo kit) to each well, and let it stand for 30 minutes at 37° C. and 5% CO2 in the dark. 2) Use Envision instrument to read the chemiluminescence signal value.
Data analysis: IC50 results are analyzed by GraphPad Prism 6 software. […] X: log value of compound concentration; Y: inhibition rate (% inhibition); inhibition rate (% inhibition)=(blank control well reading−compound well reading)/(blank control well reading−positive control reading)×100.

[2] = Pharmacokinetic study in rats after intragastrical administration; format: in vivo; settings: male, rat, plasma, po, SD rats, 4 mg/kg
Description: Example 55: Pharmacokinetic Study in Rats
Instruments: XEVO TQ-S LC/MS instrument produced by Waters. All measurement data is collected and processed by Masslynx V4.1 software, and the data is calculated and processed by Microsoft Excel. Using WinNonLin 8.0 software, the statistical moment method was used to calculate the pharmacokinetic parameters. Mainly include kinetic parameters Tmax, T1/2, Cmax, AUClast etc. […] Injection volume: 5 μL.
Animals: 3 male SD rats with a weight range of 200-220 g. After purchase, they will be kept in the laboratory of the Experimental Animal Center for 2 days and then used. They will be fasted for 12 hours predose and 4 hours after dosing. Drinking water is free during the test. After the rats were gavage, blood samples were taken according to the established time point.
Solvent: 0.5% Methylcellulose (aqueous solution containing 0.4% Tween 80 and 1% ethanol). Preparation of the solution for intragastrical administration: accurately weigh the compound, add it to the solvent, and ultrasonically at room temperature for 5 minutes to completely dissolve the drug, and prepare a 0.3 mg/ml medicinal solution.
Pharmaceutical samples: representative compounds of the structure shown in the patented formula (I) of the present invention, generally, multiple samples with similar structures (with a molecular weight difference of more than 2 units) are taken, accurately weighed, and administered together (cassette PK). In this way, multiple compounds can be screened at the same time and their oral absorption rates can be compared. A single administration was also used to study the pharmacokinetics of the drug sample in rats.
After intragastrical administration, blood was taken from the orbit at 0.25, 0.5, 1, 2, 4, 9, 12 and 24 hours, and placed in a plastic centrifuge tube pretreated with sodium heparin. After centrifugation, the supernatant plasma was used for LC-MS/MS analysis.
Accurately weigh the compounds to prepare different concentrations, perform quantitative analysis on mass spectrometry to establish a standard curve, and then test the concentration of the above-mentioned compound in the plasma to obtain the compound concentration at different time points. All measurement data are collected and processed by relevant software, and the statistical moment method is used to calculate the pharmacokinetic parameters (mainly including kinetic parameters Tmax, T1/2, Cmax, AUClast etc). The results are as follows:
Table 7: Pharmacokinetic Parameters of the Compounds after Intragastrical Administration in SD Rats

MAP4K1 (HPK1) = MAP4K1 (HPK1) (Homo sapiens, UniProt Q92918); assay: MAP4K1 (HPK1) kinase activity inhibition, Caliper mobility shift assay; format: biochemical; settings: kinase 1.25 nM, ATP 10.1 μM
Sequence of MAP4K1 (HPK1) (Q92918 whole entry): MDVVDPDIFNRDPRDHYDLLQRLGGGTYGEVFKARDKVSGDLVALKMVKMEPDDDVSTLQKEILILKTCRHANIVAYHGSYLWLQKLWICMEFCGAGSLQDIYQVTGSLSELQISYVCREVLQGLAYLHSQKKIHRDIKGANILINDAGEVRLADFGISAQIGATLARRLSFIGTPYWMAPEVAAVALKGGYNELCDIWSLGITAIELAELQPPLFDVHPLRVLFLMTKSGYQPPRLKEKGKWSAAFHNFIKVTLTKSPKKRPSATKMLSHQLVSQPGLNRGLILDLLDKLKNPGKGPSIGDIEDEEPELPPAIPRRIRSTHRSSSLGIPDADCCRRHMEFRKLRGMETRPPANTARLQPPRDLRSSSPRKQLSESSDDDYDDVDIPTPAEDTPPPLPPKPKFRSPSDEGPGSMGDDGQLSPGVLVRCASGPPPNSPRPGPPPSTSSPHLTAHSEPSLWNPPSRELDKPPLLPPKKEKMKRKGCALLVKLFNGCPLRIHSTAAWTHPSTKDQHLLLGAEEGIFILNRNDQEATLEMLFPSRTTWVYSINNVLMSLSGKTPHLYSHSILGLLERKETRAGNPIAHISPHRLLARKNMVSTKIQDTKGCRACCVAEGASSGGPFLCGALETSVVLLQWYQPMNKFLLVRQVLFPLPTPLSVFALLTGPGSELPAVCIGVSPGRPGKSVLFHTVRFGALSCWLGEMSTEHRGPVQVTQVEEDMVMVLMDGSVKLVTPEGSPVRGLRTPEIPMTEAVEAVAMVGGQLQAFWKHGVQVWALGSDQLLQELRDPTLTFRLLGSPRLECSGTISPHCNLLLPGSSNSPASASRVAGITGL
Description: 4. MAP4K1 (HPK1) Kinase Activity Inhibition Experiment: Caliper mobility shift assay was used to detect the inhibitory effect of the compound on MAP4K1 (HPK1) kinase activity. The test concentration of the compound starts at 500 nM, and is diluted 5 folds into 5 concentration points. Use a dispenser Echo 550 to transfer 250 nL 100-fold final concentration of the compound to the target plate 3573, add 10 μL of MAP4K1 (HPK1) kinase solution with a final concentration of 1.25 nM, and incubate for 10 minutes at room temperature (the negative control well contains 10 μL kinase buffer and 250 nL 100% DMSO; the positive control well contains 10 μL kinase solution and 250 nL 100% DMSO). On the kinase MAP4K1 (HPK1), add 15 μL of ATP with a final concentration of 10.1 μM and 3 μM substrate peptide No. 25 mixed solution to react for 120 minutes. Add 30 μL of stop solution containing EDTA to stop the kinase reaction. Use Caliper EZ Reader to read the conversion rate. Inhibition rate %=(Average positive control conversion rate %−Sample conversion rate %/(Average positive control conversion rate %−Average negative control conversion rate %). Among them: negative control wells represent the conversion rate readings without enzyme activity; positive control wells represent the conversion rate readings of wells without compound inhibition. Take the log value of the concentration as the X-axis, and the percentage inhibition rate on the Y-axis. Log (inhibitor) vs. response—Variable slope of analysis software GraphPad Prism 5 was used to fit the curve to obtain the IC50 value of each compound on the enzyme activity. Calculation formula: Y=Bottom+(Top−Bottom)/(1+10 ^((Log IC50−X)*HillSlope)).

Sequence of EGFR (C797S) (P00533 25-1210 C797S): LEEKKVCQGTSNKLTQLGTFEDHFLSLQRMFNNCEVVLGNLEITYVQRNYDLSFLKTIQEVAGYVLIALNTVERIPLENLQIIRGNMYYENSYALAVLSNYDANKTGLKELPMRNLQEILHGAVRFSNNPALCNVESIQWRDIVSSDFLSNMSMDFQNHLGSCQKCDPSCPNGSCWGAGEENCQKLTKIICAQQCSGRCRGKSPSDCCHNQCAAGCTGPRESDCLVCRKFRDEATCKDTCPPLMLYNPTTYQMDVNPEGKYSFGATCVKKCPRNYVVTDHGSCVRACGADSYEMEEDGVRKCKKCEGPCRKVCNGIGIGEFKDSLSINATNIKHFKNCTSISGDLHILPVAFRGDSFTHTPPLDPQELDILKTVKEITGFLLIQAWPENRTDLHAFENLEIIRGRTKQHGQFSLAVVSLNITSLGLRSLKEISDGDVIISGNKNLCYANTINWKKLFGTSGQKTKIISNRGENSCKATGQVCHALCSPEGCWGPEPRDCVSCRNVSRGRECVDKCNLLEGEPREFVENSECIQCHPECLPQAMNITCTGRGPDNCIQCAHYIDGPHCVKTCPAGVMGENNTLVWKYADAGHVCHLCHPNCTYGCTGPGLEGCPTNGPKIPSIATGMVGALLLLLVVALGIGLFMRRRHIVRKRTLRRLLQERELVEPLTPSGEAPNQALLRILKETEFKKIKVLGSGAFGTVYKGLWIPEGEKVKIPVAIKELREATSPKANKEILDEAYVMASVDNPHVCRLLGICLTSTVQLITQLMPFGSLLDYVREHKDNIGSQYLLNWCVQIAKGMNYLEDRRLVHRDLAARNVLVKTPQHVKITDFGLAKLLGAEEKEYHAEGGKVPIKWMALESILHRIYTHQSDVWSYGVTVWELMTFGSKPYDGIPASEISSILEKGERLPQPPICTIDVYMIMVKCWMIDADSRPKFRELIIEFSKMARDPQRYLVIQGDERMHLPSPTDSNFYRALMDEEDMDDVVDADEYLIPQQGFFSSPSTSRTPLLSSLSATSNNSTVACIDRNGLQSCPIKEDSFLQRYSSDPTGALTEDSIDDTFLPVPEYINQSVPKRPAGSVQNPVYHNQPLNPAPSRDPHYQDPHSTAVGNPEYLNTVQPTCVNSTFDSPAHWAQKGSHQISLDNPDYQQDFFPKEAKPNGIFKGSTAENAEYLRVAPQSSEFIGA

SMILES | IC50 (EGFR (C797S)) [nM] | IC50 (ALK) [nM] | GI50 [1] [nM] | also measured
CN1CCN2c3ccc(Nc4ncc(Cl)c(Nc5ccccc5P(C)(C)=O)n4)cc3OCC2C1 (racemic) [Compound 1] | 1 to 50 | 1 to 50 | – | –
CN1CCN2c3ccc(Nc4ncc(Cl)c(Nc5ccccc5P(C)(C)=O)n4)cc3OC[C@H]2C1 [Compound 1R] | 1 to 50 | 1 to 50 | < 20 | Cmax [2]: 23.1 ng/mL; Tmax [2]: 1.08 h; half-life [2]: 12.7 h; AUC(0-t) ([2]; read-out: AUC0-24 h): 102 ng·h/mL
CN1CCN2c3ccc(Nc4ncc(Cl)c(Nc5ccccc5P(C)(C)=O)n4)cc3OC[C@@H]2C1 [Compound 1S] | 1 to 50 | 1 to 50 | < 20 | –
CP(C)(=O)c1ccccc1Nc1nc(Nc2ccc3c(c2)OC[C@H]2CN(S(=O)(=O)C4CC4)CCN32)ncc1Cl [Compound 2R] | 50 to 250 | 1 to 50 | 20 to 100 | –
CP(C)(=O)c1ccccc1Nc1nc(Nc2ccc3c(c2)OC[C@H]2CN(C4CCOCC4)CCN32)ncc1Cl [Compound 3R] | 1 to 50 | 1 to 50 | 20 to 100 | –
CP(C)(=O)c1ccccc1Nc1nc(Nc2ccc3c(c2)OC[C@H]2CNCCN32)ncc1Cl [Compound 4R] | 1 to 50 | 1 to 50 | 20 to 100 | –
CP(C)(=O)c1ccccc1Nc1nc(Nc2ccc3c(c2)OC[C@@H]2CNCCN32)ncc1Cl [Compound 4S] | 1 to 50 | 1 to 50 | 20 to 100 | –
CC(=O)N1CCN2c3ccc(Nc4ncc(Cl)c(Nc5ccccc5P(C)(C)=O)n4)cc3OC[C@H]2C1 [Compound 5R] | 50 to 250 | 1 to 50 | 100 to 200 | –
C=CC(=O)N1CCN2c3ccc(Nc4ncc(Cl)c(Nc5ccccc5P(C)(C)=O)n4)cc3OC[C@H]2C1 [Compound 6R] | 50 to 250 | 1 to 50 | 20 to 100 | –
C=CC(=O)N1CCN2c3ccc(Nc4ncc(Cl)c(Nc5ccccc5P(C)(C)=O)n4)cc3OC[C@@H]2C1 [Compound 6S] | 1 to 50 | 1 to 50 | 20 to 100 | –
CP(C)(=O)c1ccccc1Nc1nc(Nc2ccc3c(c2)OC[C@H]2CN(CCO)CCN32)ncc1Cl [Compound 7R] | 50 to 250 | 1 to 50 | – | –
CCN1CCN2c3ccc(Nc4ncc(Cl)c(Nc5ccccc5P(C)(C)=O)n4)cc3OC[C@H]2C1 [Compound 8R] | 1 to 50 | 1 to 50 | 20 to 100 | –
CP(C)(=O)c1ccccc1Nc1nc(Nc2ccc3c(c2)OC[C@H]2CN(CC#N)CCN32)ncc1Cl [Compound 9R] | 250 to 1000 | 1 to 50 | 20 to 100 | –
COCCN1CCN2c3ccc(Nc4ncc(Cl)c(Nc5ccccc5P(C)(C)=O)n4)cc3OC[C@H]2C1 [Compound 10R] | 1 to 50 | 1 to 50 | 20 to 100 | –
CN1CCC(N2CCN3c4ccc(Nc5ncc(Cl)c(Nc6ccccc6P(C)(C)=O)n5)cc4OC[C@H]3C2)CC1 [Compound 11R] | 1 to 50 | 1 to 50 | < 20 | –
CP(C)(=O)c1ccccc1Nc1nc(Nc2ccc3c(c2)OC[C@H]2COCCN32)ncc1Cl [Compound 12R] | 50 to 250 | 50 to 250 | 20 to 100 | IC50 (MAP4K1 (HPK1)): ≤ 1 nM
CP(C)(=O)c1ccccc1Nc1nc(Nc2ccc3c(c2)OC[C@@H]2COCCN32)ncc1Cl [Compound 12S] | 50 to 250 | 1 to 50 | – | –
CP(C)(=O)c1ccccc1Nc1nc(Nc2ccc3c(c2)OC[C@H]2CN(CC(F)(F)F)CCN32)ncc1Cl [Compound 13R] | 50 to 250 | 50 to 250 | 20 to 100 | –
CP(C)(=O)c1ccccc1Nc1nc(Nc2ccc3c(c2)OC[C@H]2CN(c4cccnc4)CCN32)ncc1Cl [Compound 15R] | 50 to 250 | 50 to 250 | – | IC50 (MAP4K1 (HPK1)): 1 to 10 nM
C#CC(=O)N1CCN2c3ccc(Nc4ncc(Cl)c(Nc5ccccc5P(C)(C)=O)n4)cc3OC[C@H]2C1 [Compound 17R] | – | – | < 20 | –
C=CS(=O)(=O)N1CCN2c3ccc(Nc4ncc(Cl)c(Nc5ccccc5P(C)(C)=O)n4)cc3OC[C@H]2C1 [Compound 19R] | – | – | < 20 | IC50 (MAP4K1 (HPK1)): ≤ 1 nM
COC/C=C/C(=O)N1CCN2c3ccc(Nc4ncc(Cl)c(Nc5ccccc5P(C)(C)=O)n4)cc3OC[C@H]2C1 [Compound 20R] | – | – | 20 to 100 | –
Cc1cc(Nc2ncc(Cl)c(Nc3ccccc3P(C)(C)=O)n2)cc2c1N1CCNC[C@@H]1CO2 [Compound 23R] | – | – | 20 to 100 | –
Cc1cc(Nc2ncc(Cl)c(Nc3ccccc3P(C)(C)=O)n2)cc2c1OC[C@@H]1CNCCN21 [Compound 24S] | – | – | 20 to 100 | –
COCCCC(=O)N1CCN2c3ccc(Nc4ncc(Cl)c(Nc5ccccc5P(C)(C)=O)n4)cc3OC[C@H]2C1 [Compound 28R] | – | – | 20 to 100 | –
